Data reported in ChEMBL document CHEMBL3885861, “Open TG-GATES”.

Species: Rattus norvegicus
Test: Open TG-GATES - Regimen: Single
Type: toxicity, organism-based, Sprague-Dawley
Parameters: regimen Single, gender Male, age 6 weeks
Details: in vivo, po, 1000 mg/kg, route gavage, dose level High; for APTT / Bas / Eos / Fbg / Hb / Ht / Lym / MCH / MCHC / MCV / Mono / Neu / PT / Plat / RBC / Ret / WBC: tissue Blood; for KIDNEY_L / KIDNEY_R / KIDNEY_TOTAL: tissue Kidney; for LIVER: tissue Liver; for A/G / ALP / ALT / AST / BUN / CRE / Ca / Cl / DBIL / GLC / IP / K / LDH / Na / PL / RALB / TBIL / TC / TG / TP / gamma-GTP: tissue Plasma

`CCOC(=O)CCC(=O)O[C@H]1[C@H](O[C@@H]2[C@@H](C)[C@H](O[C@H]3C[C@@](C)(OC)[C@@H](O)[C@H](C)O3)[C@@H](C)C(=O)O[C@H](CC)[C@@](C)(O)[C@H](O)[C@@H](C)C(=O)[C@H](C)C[C@@]2(C)O)O[C@H](C)C[C@@H]1N(C)C` [ERYTHROMYCIN ETHYLSUCCINATE] showed a TERMINAL_BW (3 h) of 217 g, an APTT (3 h) of 22.2 s and a Bas (3 h) of 0%. The Eos (3 h) was 1%, the Fbg (3 h) was 305.8 mg/dL and the Hb (3 h) was 13 g/dL. The Ht (3 h) was 39.2%, the Lym (3 h) was 74.6% and the MCH (3 h) was 20.5 pg. The MCHC (3 h) was 33.1%, the MCV (3 h) was 61.8 fL and the Mono (3 h) was 2.8%. It also gave a Neu (3 h) of 20%, a PT (3 h) of 15.4 s and a Plat (3 h) of 131 x10_4/uL. The RBC (3 h) was 635.4 x10_4/ul, the Ret (3 h) was 8.2% and the WBC (3 h) was 77.4 x10_2/uL. The KIDNEY_L (3 h) was 1 g, the KIDNEY_R (3 h) was 1 g and the KIDNEY_TOTAL (3 h) was 1.9 g. The LIVER (3 h) was 9.6 g, the A/G (3 h) was 1.2 and the ALP (3 h) was 1535.2 IU/L. It also gave an ALT (3 h) of 46 IU/L, an AST (3 h) of 76.6 IU/L and a BUN (3 h) of 11.8 mg/dL. It also gave a CRE (3 h) of 0.1 mg/dL, a Ca (3 h) of 10.4 mg/dL and a Cl (3 h) of 102.4 meq/L. It also gave a DBIL (3 h) of 0.014 mg/dL, a GLC (3 h) of 181.2 mg/dL and an IP (3 h) of 9.7 mg/dL. The K (3 h) was 3.7 meq/L, the LDH (3 h) was 158.4 IU/L and the Na (3 h) was 138 meq/L. For the same molecule, the PL (3 h) was 143.8 mg/dL, the RALB (3 h) was 2.9 g/dL and the TBIL (3 h) was 0.05 mg/dL. It also gave a TC (3 h) of 74.2 mg/dL, a TG (3 h) of 40 mg/dL and a TP (3 h) of 5.4 g/dL. The gamma-GTP (3 h) was 1 IU/L, the TERMINAL_BW (6 h) was 219.9 g and the APTT (6 h) was 23.4 s. The Bas (6 h) was 0%, the Eos (6 h) was 1% and the Fbg (6 h) was 315 mg/dL. For the same molecule, the Hb (6 h) was 13.3 g/dL, the Ht (6 h) was 40.7% and the Lym (6 h) was 73.2%. It also gave an MCH (6 h) of 20.6 pg, an MCHC (6 h) of 32.8% and an MCV (6 h) of 62.9 fL. For the same molecule, the Mono (6 h) was 3.2%, the Neu (6 h) was 21% and the PT (6 h) was 15.7 s. The Plat (6 h) was 134.9 x10_4/uL, the RBC (6 h) was 647.6 x10_4/ul and the Ret (6 h) was 7.9%. It also gave a WBC (6 h) of 93.4 x10_2/uL, a KIDNEY_L (6 h) of 1 g and a KIDNEY_R (6 h) of 1.1 g. The KIDNEY_TOTAL (6 h) was 2.1 g, the LIVER (6 h) was 9.1 g and the A/G (6 h) was 1.2. It also gave an ALP (6 h) of 1632.2 IU/L, an ALT (6 h) of 45.8 IU/L and an AST (6 h) of 79.8 IU/L. The BUN (6 h) was 10.2 mg/dL, the CRE (6 h) was 0.1 mg/dL and the Ca (6 h) was 10.6 mg/dL. The Cl (6 h) was 104 meq/L, the DBIL (6 h) was 0.012 mg/dL and the GLC (6 h) was 176.8 mg/dL. For the same molecule, the IP (6 h) was 10 mg/dL, the K (6 h) was 4 meq/L and the LDH (6 h) was 180 IU/L. For the same molecule, the Na (6 h) was 138.8 meq/L, the PL (6 h) was 140.4 mg/dL and the RALB (6 h) was 2.9 g/dL. For the same molecule, the TBIL (6 h) was 0.046 mg/dL, the TC (6 h) was 68.4 mg/dL and the TG (6 h) was 43.4 mg/dL. It also gave a TP (6 h) of 5.4 g/dL, a gamma-GTP (6 h) of 1.4 IU/L and a TERMINAL_BW (9 h) of 213.4 g. The APTT (9 h) was 23.1 s, the Bas (9 h) was 0% and the Eos (9 h) was 1%. The Fbg (9 h) was 304.8 mg/dL, the Hb (9 h) was 13.5 g/dL and the Ht (9 h) was 40.8%. For the same molecule, the Lym (9 h) was 76.2%, the MCH (9 h) was 20.8 pg and the MCHC (9 h) was 33.1%. For the same molecule, the MCV (9 h) was 62.8 fL, the Mono (9 h) was 2.6% and the Neu (9 h) was 19.8%. The PT (9 h) was 15.4 s, the Plat (9 h) was 121.3 x10_4/uL and the RBC (9 h) was 650.4 x10_4/ul. It also gave a Ret (9 h) of 7.2%, a WBC (9 h) of 67.2 x10_2/uL and a KIDNEY_L (9 h) of 1 g. For the same molecule, the KIDNEY_R (9 h) was 1 g, the KIDNEY_TOTAL (9 h) was 2 g and the LIVER (9 h) was 8.5 g. For the same molecule, the A/G (9 h) was 1.2, the ALP (9 h) was 1688.2 IU/L and the ALT (9 h) was 40.4 IU/L. The AST (9 h) was 73 IU/L, the BUN (9 h) was 9 mg/dL and the CRE (9 h) was 0.1 mg/dL. It also gave a Ca (9 h) of 10.5 mg/dL, a Cl (9 h) of 105.8 meq/L and a DBIL (9 h) of 0 mg/dL. For the same molecule, the GLC (9 h) was 173.8 mg/dL, the IP (9 h) was 9.7 mg/dL and the K (9 h) was 4.2 meq/L. The LDH (9 h) was 169.2 IU/L, the Na (9 h) was 139.2 meq/L and the PL (9 h) was 144.4 mg/dL. It also gave an RALB (9 h) of 3 g/dL, a TBIL (9 h) of 0.036 mg/dL and a TC (9 h) of 69.2 mg/dL. It also gave a TG (9 h) of 54.4 mg/dL, a TP (9 h) of 5.5 g/dL and a gamma-GTP (9 h) of 1 IU/L. It also gave a TERMINAL_BW (24 h) of 227.7 g, an APTT (24 h) of 20.2 s and a Bas (24 h) of 0%. The Eos (24 h) was 1%, the Fbg (24 h) was 337.4 mg/dL and the Hb (24 h) was 13.9 g/dL. For the same molecule, the Ht (24 h) was 41.8%, the Lym (24 h) was 85.4% and the MCH (24 h) was 20.9 pg. It also gave an MCHC (24 h) of 33.2%, an MCV (24 h) of 62.8 fL and a Mono (24 h) of 3%. For the same molecule, the Neu (24 h) was 8.8%, the PT (24 h) was 16.3 s and the Plat (24 h) was 125.6 x10_4/uL. It also gave an RBC (24 h) of 666 x10_4/ul, a Ret (24 h) of 7.1% and a WBC (24 h) of 93.9 x10_2/uL. It also gave a KIDNEY_L (24 h) of 1 g, a KIDNEY_R (24 h) of 1 g and a KIDNEY_TOTAL (24 h) of 2 g. The LIVER (24 h) was 9.4 g, the A/G (24 h) was 1.2 and the ALP (24 h) was 1448.8 IU/L. It also gave an ALT (24 h) of 34 IU/L, an AST (24 h) of 66.4 IU/L and a BUN (24 h) of 16.8 mg/dL. It also gave a CRE (24 h) of 0.1 mg/dL, a Ca (24 h) of 10.6 mg/dL and a Cl (24 h) of 107.6 meq/L. The DBIL (24 h) was 0 mg/dL, the GLC (24 h) was 197.8 mg/dL and the IP (24 h) was 9 mg/dL. It also gave a K (24 h) of 4.3 meq/L, an LDH (24 h) of 209.6 IU/L and a Na (24 h) of 142.8 meq/L. For the same molecule, the PL (24 h) was 139.6 mg/dL, the RALB (24 h) was 3 g/dL and the TBIL (24 h) was 0.024 mg/dL. For the same molecule, the TC (24 h) was 86.6 mg/dL, the TG (24 h) was 53.2 mg/dL and the TP (24 h) was 5.6 g/dL. For the same molecule, the gamma-GTP (24 h) was 1.2 IU/L.
